Test results taken from patent US6406718B1, “Orthorhombic crystalline form of fluticasone propionate and pharmaceutical compositions thereof” (SmithKline Beecham Corporation, priority 1996, dated 2002).

Columns and labels:
Assay type in all cases: physicochemical
[1] = Static charge test (drug retained on vial walls after rolling); details: after rolling drug in the vial for 2 minutes
Description: A simple test was devised to ascertain a relative static charge based on the quantity of drug remaining coated to the walls of a vial after rolling a predetermined quantity of drug in the vial for 2 minutes. The greater the amount of the drug remaining on the vial, the higher the relative static charge associated with the drug substance.

[2] = Water content of crystalline forms
From the text: The water content of the two crystalline forms of fluticasone propionate produced with the apparatus described herein has also been determined, and compared with that of conventionally crystallised and micronised fluticasone propionate.

[3] = Particle size distribution by laser diffraction (Malvern Mastersizer)
Description: The data for four samples of fluticasone propionate of the present invention, produced using the method and apparatus described herein, are presented in Table 2 below. The particle size was determined by laser diffraction (Malvern Mastersizer).
The particle size was determined by laser diffraction (Malvern Mastersizer).

[4] = Particle shape by scanning electron microscopy
Description: The particle shape was determined by scanning electron microscopy. Data for three samples of fluticasone propionate of the present invention, produced using the method and apparatus described herein, are presented in FIGS. 5 to 7.

[5] = Stability of Form 2 to conversion to Form 1 by XRPD; details: after 62 weeks at ambient temperature and humidity
Description: X-ray powder diffraction (XRPD) patterns were generated using either a Siemens D 5000 or Philips X'pert MPD. The powders were scanned over a 2θ angle range of either 1.5° to 60°, or 0° to 35°, with a 0.02-0.050 step at 3-15 seconds count time using CuKα radiation. The Siemens D5000 measures intensity as counts per second and the Philips X'pert MPD measures intensity as counts.

[6] = Dynamic bulk density (fluidisability)
Description: The dynamic bulk density (W) is indicative of a substance's fluidisability and is defined as: [formula]
where P is the packed bulk density (g cm^−3), A is the aerated bulk density (g cm^−3) and C is the compressibility (%) where C is calculated by the equation: [formula]
Clearly, a low figure for W corresponds to a high degree of fluidisability.
The dynamic bulk density for conventionally crystallised fluticasone propionate (micronised and non-micronised) and fluticasone propionate of the present invention are shown in Table 7.

[7] = Solvent content test by NMR
Description: The solvent content of fluticasone propionate of the present invention was investigated by Nuclear Magnetic Resonance (NMR) and compared to that of conventional crystallised fluticasone propionate. Each sample was tested for acetone content. (The conventionally crystallised fluticasone propionate was crystallised from acetone.) In addition, sample 5 was crystallised from methanol and therefore tested for methanol.

[8] = laser diffraction (Malvern Mastersizer)
[9] = drug material used in Inhaler Type A for cascade impaction

| Substance | % <5 μm [3, 8] | % <10 μm [3, 8] | Mean particle size [3, 8] | Uniformity Index [3, 8] | also measured |
| --- | --- | --- | --- | --- | --- |
| fluticasone propionate [Sample 17] |  |  |  |  | % Drug retained on vial [1]: 8.6% |
| fluticasone propionate [Form 1 fluticasone propionate prepared as described herein] |  |  |  |  | Water content [2]: <0.1 % w/w |
| fluticasone propionate [Sample 2] | 20% | 48% | 10.4 μm | 13 |  |
| fluticasone propionate [Sample 7] |  |  |  |  | Particle shape [4]: equant |
| fluticasone propionate [Form 2 fluticasone propionate prepared as described herein] |  |  |  |  | Conversion of Form 2 to Form 1 [5]: no conversion was seen; Water content [2]: >0.3 % w/w |
| fluticasone propionate [Sample 3] | 6% | 13% | 31.0 μm | 12 | Dynamic Bulk Density (W) [6]: 0.17 g cm^−3 |
| fluticasone propionate [Sample 8] | 23% | 53% | 9.4 μm | 11 | Acetone Content [7]: Not Detected |
| fluticasone propionate [Sample 14] |  |  |  |  | % Drug retained on vial [1]: 3.8% |
| fluticasone propionate [Conventionally crystallised fluticasone propionate (non-micr] [reference compound] |  |  |  |  | Dynamic Bulk Density (W) [6]: 0.21 g cm^−3 |
| fluticasone propionate [Sample 16] |  |  |  |  | % Drug retained on vial [1]: 7.6% |
| fluticasone propionate [Sample 19] |  |  |  |  | Mean particle size [3, 9]: 4.8 microns |
| fluticasone propionate [Sample 4] | 68% | 83% | 2.8 μm | 4 |  |
| fluticasone propionate [Sample 6] | 24% | 51% | 9.7 μm | 10 | Particle shape [4]: flake-like |
| fluticasone propionate [Sample 12] |  |  |  |  | Dynamic Bulk Density (W) [6]: 0.05 g cm^−3 |
| fluticasone propionate [Sample 5] |  |  |  |  | Particle shape [4]: acicular; Acetone Content [7]: Not Detected; Methanol Content [7]: Not Detected |
| fluticasone propionate [Conventionally crystallised fluticasone propionate (micronis] [reference compound] | >90% | >95% | 1-3 μm | 15 | Mean particle size [3, 9]: 1.8 microns; Water content [2]: <0.1 % w/w; Dynamic Bulk Density (W) [6]: 0.21 g cm^−3; % Drug retained on vial [1]: 4.5%; Acetone Content [7]: typically 0.7 % w/w |
| fluticasone propionate [Sample 13] |  |  |  |  | Dynamic Bulk Density (W) [6]: 0.06 g cm^−3 |
| fluticasone propionate [Sample 1] | 48% | 81% | 5.2 μm | 12 |  |
| fluticasone propionate [Sample 15] |  |  |  |  | % Drug retained on vial [1]: 4.2%; Acetone Content [7]: Not Detected |
| fluticasone propionate [Sample 9] | 23% | 52% | 9.6 μm | 12 |  |
